Here are results for 5 compounds from US7732491B2, “Treatment of breast cancer with a PARP inhibitor alone or in combination with anti-tumor agents” (priority 2007, dated 2010).

Series [1] deals with panel of 63 other kinases, including native c-Abl. As to conditions: cited from earlier work.
A further series has as its system Bcr-abl. As to conditions: read-out: inhibits Bcr-abl phosphorylation, IC50; cited from earlier work.
Another series concerns the target T1, PARP (Homo sapiens, UniProt P09874).
T1 construct: endogenous in cells; host or cells: peripheral blood mononuclear cells (PBMCs) from patients
In words: PARP inhibition in peripheral mononuclear blood cells (PMBCs) from patients. Format: in vivo. As for the experimental part: The functional activity of PARP before and after treatment of BA will be determined using a PARP activity assay in Peripheral Blood Mononuclear Cells (PBMCs). PBMCs will be prepared from 5 mL blood samples according to procedures described in detail in the study manual and PARP activity/inhibition will be measured.

In the next series the test system is advanced breast tumors. In words: Phase 1b open-label dose escalation study of BA with chemotherapeutic regimens. Type of series: in vivo, human.
The conditions of series [2]: in vivo; cited from earlier work.
A further series can be described thus: Lipophilicity. Format: physicochemical. From the text:
(§1) The person skilled in the art will recognize that BA may be administered in any pharmaceutically acceptable form. e.g. as a pharmaceutically acceptable salt, solvate, or complex. Additionally, as BA is capable of tautomerizing in solution, the tautomeric form of BA is intended to be embraced by the term BA (or the equivalent 4-iodo-3-nitrobenzamide), along with the salts, solvates or complexes. In some embodiments, BA may be administered in combination with a cyclodextrin, such as hydroxypropylbetacyclodextrin.

Series [3] concerns MDA-MB-468 triple negative breast adenocarcinoma cell line. Description: Vital cells, % control. Format: cell-based, human. As for the experimental part: (§2) Breast cancer cells are obtained from ATCC and cultured in Dulbecco Modified Eagle Medium with 10% fetal bovine serum. Cells are plated at 10^5 cells per P100 cell culture dish or at 10^4 cells per P60 cell culture dish in the presence of different concentrations compounds or DMSO control. Following treatment, the number of attached cells is measured using Coulter counter, and by staining with 1% methylene blue. Methylene blue is dissolved in 50%-50% mixture of Methanol and water. Cells are plated in 24- or 96-well plates and treated as planned, media are aspirated, cells are washed with PBS, fixed in methanol for 5-10 min, methanol is aspirated and plates are allowed to dry completely. Methylene blue solution is added to wells and plates are incubated for 5 min. Staining solution is removed and plates are washed with dH2O until washes are no longer blue. After plates are completely dry, a small amount of 1N HCl is added to each well to extract the methylene blue. The OD readout at 600 nm and a calibration curve are used to determine cell number.
After the addition of drugs and incubation, cells are trypsinized and aliquots of the samples are taken for counting and PI (Propidium Iodide) exclusion assay. One part of the cells is centrifuged and resuspended in 0.5 ml ice-cold PBS containing 5 μg/ml of PI. The other part of the cells is fixed in ice-cold 70% ethanol and stored in a freezer overnight. For cell cycle analysis, cells are stained with propidium iodide (PI) by standard procedures. Cellular DNA content is determined by flow cytometry using BD LSRII FACS, and the percentages of cells in G1, S or G2/M are determined using ModFit software.
as §2, with “min.” for “min,”
PI exclusion, cell cycle, TUNEL assays, and BrdU labeling assays are performed as described above in Example 2.

Series [4] in a line: Tissue distribution / blood-brain barrier. Conditions: in vivo.
Text: as §1
While not wishing to be bound by any particular theory, it is believed that BA achieves its anti-neoplastic effect by inhibiting the function of PARP. In some embodiments, BA can be used in the treatment of triple negative metastatic breast tumors. In some embodiments, BA can be used in the treatment of breast tumors in which at least one of ER, PR, and Her2 is negative. In some embodiments, BA can be used in the treatment of breast tumors in which at least two of ER, PR, and Her2 is negative, e.g. ER-negative, PR-negative, and Her-2 positive; or ER-positive, PR-negative, and Her-2 negative; or ER-negative, PR-positive, and Her-2 negative.

For series [5], the system named is MDA-MB-468 triple negative breast adenocarcinoma cell line. Description: Cell cycle analysis (PI staining, flow cytometry). Format: cell-based, human. Also on record: G1 / S / G2/M: unit not given here. Background: In flow cytometry, cells or beads pass a laser one at a time.
The conditions of series [6]: prepared as directed (10 mg/ml); room temperature; cited from earlier work.

Each structure is given as a SMILES string.

T1 sequence (P09874 whole entry): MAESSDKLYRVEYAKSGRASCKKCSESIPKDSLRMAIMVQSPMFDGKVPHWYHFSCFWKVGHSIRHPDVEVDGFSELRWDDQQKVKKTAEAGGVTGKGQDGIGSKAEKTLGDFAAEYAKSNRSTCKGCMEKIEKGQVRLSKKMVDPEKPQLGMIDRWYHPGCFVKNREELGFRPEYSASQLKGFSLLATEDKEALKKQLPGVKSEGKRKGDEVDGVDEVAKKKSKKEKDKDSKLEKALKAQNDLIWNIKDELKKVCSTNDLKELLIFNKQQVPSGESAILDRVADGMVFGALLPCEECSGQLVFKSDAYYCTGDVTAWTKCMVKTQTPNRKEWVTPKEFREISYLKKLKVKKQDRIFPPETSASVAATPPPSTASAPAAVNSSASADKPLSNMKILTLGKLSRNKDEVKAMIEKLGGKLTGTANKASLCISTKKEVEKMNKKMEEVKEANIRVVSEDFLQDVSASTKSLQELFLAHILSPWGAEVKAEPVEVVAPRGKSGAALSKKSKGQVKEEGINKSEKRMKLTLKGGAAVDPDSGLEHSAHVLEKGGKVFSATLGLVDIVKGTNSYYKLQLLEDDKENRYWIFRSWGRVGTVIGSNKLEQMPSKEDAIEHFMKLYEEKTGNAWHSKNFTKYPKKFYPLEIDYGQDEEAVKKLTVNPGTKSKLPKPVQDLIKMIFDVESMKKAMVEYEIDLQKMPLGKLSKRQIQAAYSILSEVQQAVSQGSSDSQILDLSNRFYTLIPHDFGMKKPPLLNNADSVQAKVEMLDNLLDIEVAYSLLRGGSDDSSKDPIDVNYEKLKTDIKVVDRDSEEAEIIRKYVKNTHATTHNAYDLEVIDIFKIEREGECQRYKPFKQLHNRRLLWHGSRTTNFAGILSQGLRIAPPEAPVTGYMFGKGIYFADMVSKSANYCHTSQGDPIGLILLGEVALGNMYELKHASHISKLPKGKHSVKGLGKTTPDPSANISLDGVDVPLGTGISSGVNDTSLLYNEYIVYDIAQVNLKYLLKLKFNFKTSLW

In the case of `NC(=O)c1cccc(-c2cc(Nc3ccc(OC(F)(F)F)cc3)ncn2)c1` [GNF-2], the “inhibition of a panel of 63 other kinases, including native c-Abl” value in series [1] was “does not inhibit”. Besides, the IC50 in the series with Bcr-abl was 267 nM.
For `NC(=O)c1ccc(I)c([N+](=O)[O-])c1` [BA, 4-iodo-3-nitrobenzamide], the “biologically relevant dose that elicits significant and sustained PARP inhibition” value at PARP (Phase 1b) was 2.8 mg/kg. Besides, the “PARP inhibition in PBMCs from patients” value at PARP (after multiple dosing with BA doses of 2.8 mg/kg or higher, FIG. 3) is “significant and prolonged PARP inhibition”. Also, the “subjects with evidence of stable disease for 2 cycles of treatment or more” value in the series on advanced breast tumors (BA in combination with chemotherapeutic regimens) is on record as “Approximately 80%”. In the series on advanced breast tumors (with topotecan, gemcitabine, temozolomide, or carboplatin+paclitaxel), the “tolerability of combination of BA with each cytotoxic regimen” value is reported as “well tolerated”. Besides, in [2], the blood-brain barrier entry is on record as “cross the blood-brain barrier”. Besides, in “Lipophilicity”, the lipophilicity result is listed as “very lipophilic”. Also, the “vital cells, % control” value is on record as 91.5 % control in [3] (Irinotecan 0 uM + BA 50 uM) and 67.5 % control in series [3] (Irinotecan 0 uM + BA 100 uM). Besides, the “Vital Cell % control” value in series [3] (PPP 0 nM + 201 50 uM) amounted to 82 % control; in series [3] (PPP 0 nM + 201 100 uM) it was 61 % control. Further, in series [4], the tissue distribution entry is “distributes rapidly and widely into tissues, including the brain and cerebrospinal fluid (CSF)”. In [5] (3 gray of gamma irradiation with 100 μM of BA, FIG. 6), the “effect on cell cycle arrest and antiproliferative effect of gamma irradiation” value was “potentiates S- and G2/M cell cycle arrest and enhances the antiproliferative effect of gamma irradiation”. Besides, the “effect on cell cycle arrest and cytotoxic effects induced by PPP” value in [5] (BA in combination with PPP) is “potentiates S- and G2/M cell cycle arrest and enhances cytotoxic effects”. Further, in [5] (BA in combination with gemcitabine or carboplatin, FIG. 2), the “effect on cell cycle arrest and cytotoxic effects induced by carboplatin or gemcitabine” value is “potentiates S- and G2/M cell cycle arrest and enhances cytotoxic effects”. In [5] (BA in combination with irinotecan), the “effect on cell cycle arrest and cytotoxic effects induced by irinotecan” value was “potentiates S- and G2/M cell cycle arrest and enhances cytotoxic effects”. In addition, the G1 in series [5] (Irinotecan 0 uM + BA 50 uM) was 65.50; in series [5] (Irinotecan 0 uM + BA 100 uM), 57.72; in [5] (PPP 0 nM + 201 50 uM), 50.20; in series [5] (PPP 0 nM + 201 100 uM) it was 40.63. In addition, the G2/M in series [5] (Irinotecan 0 uM + BA 50 uM) was 11.02; in series [5] (Irinotecan 0 uM + BA 100 uM) it was 15.34; in [5] (PPP 0 nM + 201 50 uM) it was 15.21; in series [5] (PPP 0 nM + 201 100 uM), 20.16. The S was 23.48 in series [5] (Irinotecan 0 uM + BA 50 uM), 26.93 in series [5] (Irinotecan 0 uM + BA 100 uM), 31.34 in [5] (PPP 0 nM + 201 50 uM) and 34.52 in series [5] (PPP 0 nM + 201 100 uM).
In the case of `CCc1c2c(nc3ccc(OC(=O)N4CCC(N5CCCCC5)CC4)cc13)-c1cc3c(c(=O)n1C2)COC(=O)[C@]3(O)CC` [Irinotecan, reference compound], the “vital cells, % control” value in series [3] (Irinotecan 5 uM + BA 0 uM) is recorded as 48.6 % control. For the same compound, in series [5] (Irinotecan 5 uM + BA 0 uM), the G1 stood at 38.17, the G2/M was 28.05 and the S was 33.77.
On to `N.N.O=C([O-])C1(C(=O)[O-])CCC1.[Pt+2]` [carboplatin], for which, in series [6], the “stability of carboplatin solutions” value is “eight”.
Regarding `COc1cc([C@@H]2c3cc4c(cc3[C@H](O)[C@H]3COC(=O)[C@@H]23)OCO4)cc(OC)c1OC` [PPP, Picropodophyllin, reference compound], in [3] (PPP 200 nM + 201 0 uM), the “Vital Cell % control” value came to 89 % control. For the same compound, the “Vital Cell % control” value in [3] (PPP 400 nM + 201 0 uM) was determined as 60 % control. Besides, in [5] (PPP 200 nM + 201 0 uM), the G1 is recorded as 51.42, the G2/M turned out to be 15.01 and the S worked out at 30.22. Further, in [5] (PPP 400 nM + 201 0 uM), the G1 is listed as 37.29, the G2/M is 20.17 and the S was 25.32.

As a reminder, the IC50 is the concentration needed to halve the response being measured.
